Measurements: US9885088B2, “Rapid phenotypic diagnosis of pathogens and drug resistance using transcriptional expression signatures” (priority 2010, dated 2018)
≈ marks a conversion by molar mass, not a printed value. Where two headings read alike, the source gives them in different places.

Experiments:
M. tuberculosis [1] = type: cell-based
M. tuberculosis [2] = test: microbe, parasite or virus in culture; type: cell-based
M. tuberculosis [3] = conditions: M. tuberculosis after drug exposure, cited from earlier work; for Magnitude of induction/repression in prior microarray-based assays, RV1570 bioD: gene RV1570 (bioD); for Magnitude of induction/repression in prior microarray-based assays, RV1570 bioD / Magnitude of induction/repression in prior microarray-based assays, RV1606 hisI / Magnitude of induction/repression in prior microarray-based assays, Rv0984 moaB2 / Magnitude of induction/repression in prior microarray-based assays, Rv2296 haloalkane / Magnitude of induction/repression in prior microarray-based assays, Rv2364c era: purpose RIF; for Magnitude of induction/repression in prior microarray-based assays, RV1606 hisI: gene RV1606 (hisI); for Magnitude of induction/repression in prior microarray-based assays, RV3675: gene RV3675 (Rv3675); for Magnitude of induction/repression in prior microarray-based assays, RV3675 / Magnitude of induction/repression in prior microarray-based assays, Rv2245 kasA / Magnitude of induction/repression in prior microarray-based assays, Rv2247 accD6 / Magnitude of induction/repression in prior microarray-based assays, Rv2846c efpA / Magnitude of induction/repression in prior microarray-based assays, Rv3801c fadD32: purpose INH; for Magnitude of induction/repression in prior microarray-based assays, Rv0055 rpsR: gene Rv0055 (rpsR); for Magnitude of induction/repression in prior microarray-based assays, Rv0055 rpsR / Magnitude of induction/repression in prior microarray-based assays, Rv1317c alkA / Magnitude of induction/repression in prior microarray-based assays, Rv2737c recA / Magnitude of induction/repression in prior microarray-based assays, Rv2790c ltp1 / Magnitude of induction/repression in prior microarray-based assays, Rv3296 lhr: purpose FQ; for Magnitude of induction/repression in prior microarray-based assays, Rv0667 rpoB: gene Rv0667 (rpoB); for Magnitude of induction/repression in prior microarray-based assays, Rv0667 rpoB / Magnitude of induction/repression in prior microarray-based assays, Rv1980c mpt64 / Magnitude of induction/repression in prior microarray-based assays, Rv2703 sigA / Magnitude of induction/repression in prior microarray-based assays, Rv3583c: purpose control; for Magnitude of induction/repression in prior microarray-based assays, Rv0813c CHP: gene Rv0813c (CHP); for Magnitude of induction/repression in prior microarray-based assays, Rv0813c CHP / Magnitude of induction/repression in prior microarray-based assays, Rv1511 gmdA / Magnitude of induction/repression in prior microarray-based assays, Rv1608c bcpB / Magnitude of induction/repression in prior microarray-based assays, Rv1832 gcvB / Magnitude of induction/repression in prior microarray-based assays, Rv3417c groEL: purpose SM; for Magnitude of induction/repression in prior microarray-based assays, Rv0984 moaB2: gene Rv0984 (moaB2); for Magnitude of induction/repression in prior microarray-based assays, Rv1317c alkA: gene Rv1317c (alkA); for Magnitude of induction/repression in prior microarray-based assays, Rv1511 gmdA: gene Rv1511 (gmdA); for Magnitude of induction/repression in prior microarray-based assays, Rv1608c bcpB: gene Rv1608c (bcpB); for Magnitude of induction/repression in prior microarray-based assays, Rv1832 gcvB: gene Rv1832 (gcvB); for Magnitude of induction/repression in prior microarray-based assays, Rv1980c mpt64: gene Rv1980c (mpt64); for Magnitude of induction/repression in prior microarray-based assays, Rv2245 kasA: gene Rv2245 (kasA); for Magnitude of induction/repression in prior microarray-based assays, Rv2247 accD6: gene Rv2247 (accD6); for Magnitude of induction/repression in prior microarray-based assays, Rv2296 haloalkane: gene Rv2296 (haloalkane); for Magnitude of induction/repression in prior microarray-based assays, Rv2364c era: gene Rv2364c (era); for Magnitude of induction/repression in prior microarray-based assays, Rv2703 sigA: gene Rv2703 (sigA); for Magnitude of induction/repression in prior microarray-based assays, Rv2737c recA: gene Rv2737c (recA); for Magnitude of induction/repression in prior microarray-based assays, Rv2790c ltp1: gene Rv2790c (ltp1); for Magnitude of induction/repression in prior microarray-based assays, Rv2846c efpA: gene Rv2846c (efpA); for Magnitude of induction/repression in prior microarray-based assays, Rv3296 lhr: gene Rv3296 (lhr); for Magnitude of induction/repression in prior microarray-based assays, Rv3417c groEL: gene Rv3417c (groEL); for Magnitude of induction/repression in prior microarray-based assays, Rv3583c: gene Rv3583c; for Magnitude of induction/repression in prior microarray-based assays, Rv3801c fadD32: gene Rv3801c (fadD32)
E. coli [4] = test: microbe, parasite or virus in culture; type: cell-based
E. coli [5] = type: cell-based; conditions: wild-type E. coli K-12, 10-30 minute exposure
[6] = Mycobacterium tuberculosis, H37RV
[7] = E. coli clinical isolate CIEC9955

NNC(=O)c1ccncc1 [Isoniazid]
genes with drug-dependent induction (M. tuberculosis [1]): kasA, fadD32, accD6, efpA, and Rv3675.1
MIC (M. tuberculosis [2]; Mycobacterium tuberculosis, BAA812): 0.4 µg/mL (≈ 2.92 µM)
MIC (M. tuberculosis [2]; [6]): 0.05 µg/mL (≈ 0.365 µM)

[H]/N=C(/N)N[C@H]1[C@H](O)[C@@H](O)[C@H](O[C@@H]2O[C@@H](C)[C@](O)(C=O)[C@H]2O[C@@H]2O[C@@H](CO)[C@H](O)[C@@H](O)[C@@H]2NC)[C@@H](N/C(N)=N\[H])[C@@H]1O [Streptomycin]
genes with drug-dependent induction (M. tuberculosis [1]): CHP, bcpB, gcvB, and groEL
MIC (M. tuberculosis [2]; [6]): 1 µg/mL (≈ 1.72 µM)
Magnitude of induction/repression in prior microarray-based assays, RV1570 bioD (M. tuberculosis [3]): −0.3
Magnitude of induction/repression in prior microarray-based assays, RV1606 hisI (M. tuberculosis [3]): −0.4
Magnitude of induction/repression in prior microarray-based assays, RV3675 (M. tuberculosis [3]): 0.0
Magnitude of induction/repression in prior microarray-based assays, Rv0055 rpsR (M. tuberculosis [3]): 1.7
Magnitude of induction/repression in prior microarray-based assays, Rv0667 rpoB (M. tuberculosis [3]): 1.4
Magnitude of induction/repression in prior microarray-based assays, Rv0813c CHP (M. tuberculosis [3]): 3.8
Magnitude of induction/repression in prior microarray-based assays, Rv0984 moaB2 (M. tuberculosis [3]): −1.1
Magnitude of induction/repression in prior microarray-based assays, Rv1317c alkA (M. tuberculosis [3]): 0.4
Magnitude of induction/repression in prior microarray-based assays, Rv1511 gmdA (M. tuberculosis [3]): 1.6
Magnitude of induction/repression in prior microarray-based assays, Rv1608c bcpB (M. tuberculosis [3]): 2.2
Magnitude of induction/repression in prior microarray-based assays, Rv1832 gcvB (M. tuberculosis [3]): 1.3
Magnitude of induction/repression in prior microarray-based assays, Rv1980c mpt64 (M. tuberculosis [3]): 0.4
Magnitude of induction/repression in prior microarray-based assays, Rv2245 kasA (M. tuberculosis [3]): −1.9
Magnitude of induction/repression in prior microarray-based assays, Rv2247 accD6 (M. tuberculosis [3]): −0.8
Magnitude of induction/repression in prior microarray-based assays, Rv2296 haloalkane (M. tuberculosis [3]): 0.1
Magnitude of induction/repression in prior microarray-based assays, Rv2364c era (M. tuberculosis [3]): −0.6
Magnitude of induction/repression in prior microarray-based assays, Rv2703 sigA (M. tuberculosis [3]): 0.4
Magnitude of induction/repression in prior microarray-based assays, Rv2737c recA (M. tuberculosis [3]): −0.1
Magnitude of induction/repression in prior microarray-based assays, Rv2790c ltp1 (M. tuberculosis [3]): −1.1
Magnitude of induction/repression in prior microarray-based assays, Rv2846c efpA (M. tuberculosis [3]): −0.7
Magnitude of induction/repression in prior microarray-based assays, Rv3296 lhr (M. tuberculosis [3]): 0.1
Magnitude of induction/repression in prior microarray-based assays, Rv3417c groEL (M. tuberculosis [3]): 1.6
Magnitude of induction/repression in prior microarray-based assays, Rv3583c (M. tuberculosis [3]): 1.0
Magnitude of induction/repression in prior microarray-based assays, Rv3801c fadD32 (M. tuberculosis [3]): 0.8

Gentamicin
Sensitive (S) or Resistant (R) (E. coli [4]): S and R
MIC (E. coli [4]; E. coli clinical isolate CIEC1676): 8 µg/mL
MIC (E. coli [4]; E. coli clinical isolate CIEC1801): 8 µg/mL
MIC (E. coli [4]; E. coli clinical isolate CIEC2219): 125 µg/mL
MIC (E. coli [4]; E. coli clinical isolate CIEC4940): >250 µg/mL
MIC (E. coli [4]; E. coli clinical isolate CIEC9181): >250 µg/mL
MIC (E. coli [4]; [7]): 16 µg/mL
MIC (E. coli [4]; E. coli strain K12): 8 µg/mL
changes in transcript levels (drug-susceptible expression signature) (E. coli [5]): expected changes in transcript levels

CC1(C)S[C@@H]2[C@H](NC(=O)[C@H](N)c3ccccc3)C(=O)N2[C@H]1C(=O)O [Ampicillin]
Sensitive (S) or Resistant (R) (E. coli [4]; [7]): R
Sensitive (S) or Resistant (R) (E. coli [4]; E. coli strain K12): S
MIC (E. coli [4]; Escherichia coli, E. coli clinical isolate CIEC0838, read-out: MIC): > 250 µg/mL
MIC (E. coli [4]; Escherichia coli, E. coli clinical isolate CIEC2219, read-out: MIC): > 250 µg/mL
MIC (E. coli [4]; Escherichia coli, E. coli clinical isolate CIEC9181, read-out: MIC): > 250 µg/mL
MIC (E. coli [4]; Escherichia coli, E. coli clinical isolate CIEC9955, read-out: MIC): > 250 µg/mL
MIC (E. coli [4]; Escherichia coli, E. coli strain DH5α, read-out: MIC): 8 µg/mL (≈ 22.9 µM)
MIC (E. coli [4]; Escherichia coli, E. coli strain J53, read-out: MIC): 4 µg/mL (≈ 11.4 µM)
MIC (E. coli [4]; Escherichia coli, E. coli strain K12, read-out: MIC): 4 µg/mL (≈ 11.4 µM)
changes in transcript levels (drug-susceptible expression signature) (E. coli [5]): expected changes in transcript levels

O=C(O)c1cn(C2CC2)c2cc(N3CCNCC3)c(F)cc2c1=O [Ciprofloxacin]
MIC (M. tuberculosis [2]): 16 µg/mL (≈ 48.3 µM)

CO[C@H]1/C=C/O[C@@]2(C)Oc3c(C)c(O)c4c(O)c(c(/C=N/N5CCN(C)CC5)c(O)c4c3C2=O)NC(=O)/C(C)=C\C=C\[C@H](C)[C@H](O)[C@@H](C)[C@@H](O)[C@@H](C)[C@H](OC(C)=O)[C@@H]1C [Rifampin]
genes with drug-dependent induction (M. tuberculosis [1]): bioD, hisI, era, and Rv2296

CO[C@H]1/C=C/O[C@@]2(C)Oc3c(C)c(O)c4c(O)c(c(/C=N/N5CCN(C)CC5)c(O)c4c3C2=O)NC(=O)/C(C)=C\C=C\[C@H](C)[C@H](O)[C@@H](C)[C@@H](O)[C@@H](C)[C@H](OC(C)=O)[C@@H]1C [RIF]
Magnitude of induction/repression in prior microarray-based assays, RV1570 bioD (M. tuberculosis [3]): 1.2
Magnitude of induction/repression in prior microarray-based assays, RV1606 hisI (M. tuberculosis [3]): 1.5
Magnitude of induction/repression in prior microarray-based assays, RV3675 (M. tuberculosis [3]): 0.0
Magnitude of induction/repression in prior microarray-based assays, Rv0055 rpsR (M. tuberculosis [3]): −0.9
Magnitude of induction/repression in prior microarray-based assays, Rv0667 rpoB (M. tuberculosis [3]): 0.1
Magnitude of induction/repression in prior microarray-based assays, Rv0813c CHP (M. tuberculosis [3]): 0.3
Magnitude of induction/repression in prior microarray-based assays, Rv0984 moaB2 (M. tuberculosis [3]): 1.7
Magnitude of induction/repression in prior microarray-based assays, Rv1317c alkA (M. tuberculosis [3]): 0.5
Magnitude of induction/repression in prior microarray-based assays, Rv1511 gmdA (M. tuberculosis [3]): −0.3
Magnitude of induction/repression in prior microarray-based assays, Rv1608c bcpB (M. tuberculosis [3]): 0.3
Magnitude of induction/repression in prior microarray-based assays, Rv1832 gcvB (M. tuberculosis [3]): −0.4
Magnitude of induction/repression in prior microarray-based assays, Rv1980c mpt64 (M. tuberculosis [3]): −1.2
Magnitude of induction/repression in prior microarray-based assays, Rv2245 kasA (M. tuberculosis [3]): −1.0
Magnitude of induction/repression in prior microarray-based assays, Rv2247 accD6 (M. tuberculosis [3]): −0.8
Magnitude of induction/repression in prior microarray-based assays, Rv2296 haloalkane (M. tuberculosis [3]): 1.2
Magnitude of induction/repression in prior microarray-based assays, Rv2364c era (M. tuberculosis [3]): 1.4
Magnitude of induction/repression in prior microarray-based assays, Rv2703 sigA (M. tuberculosis [3]): −1.4
Magnitude of induction/repression in prior microarray-based assays, Rv2737c recA (M. tuberculosis [3]): −0.6
Magnitude of induction/repression in prior microarray-based assays, Rv2790c ltp1 (M. tuberculosis [3]): −0.7
Magnitude of induction/repression in prior microarray-based assays, Rv2846c efpA (M. tuberculosis [3]): −0.9
Magnitude of induction/repression in prior microarray-based assays, Rv3296 lhr (M. tuberculosis [3]): 0.2
Magnitude of induction/repression in prior microarray-based assays, Rv3417c groEL (M. tuberculosis [3]): −0.9
Magnitude of induction/repression in prior microarray-based assays, Rv3583c (M. tuberculosis [3]): −1.8
Magnitude of induction/repression in prior microarray-based assays, Rv3801c fadD32 (M. tuberculosis [3]): −0.6
